Measured values taken from the supplement of paper PMC4862054.

Assays:
Settings in all cases: incubation time: 72 h
CAL-51 [1] = experiment: normalised response (% of control), CellTiter-Glo; higher = more viable cells (100 = DMSO, 0 = benzethonium chloride kill control)
Method in brief: (§1)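 Every value is a normalised signal taken at one concentration of a dilution series. Compound was placed in 384-well plates at 5 concentrations in 10-fold steps over a compound-specific 10,000-fold range, and 20 µl of breast cancer cell suspension was seeded onto it. After 72 h, CellTox Green fluorescence (485/520 nm) was measured first and CellTiter-Glo luminescence second, following 10 min at room temperature. Each plate was scaled to 0.1 % DMSO (100) and a positive kill control (0).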

DU-4475 [2] = experiment: as above
Method in brief: as §1

MDA-MB-468 [3] = experiment: as above
Method in brief: as §1

Hs578T [4] = experiment: as above
Method in brief: as §1

HCC1599 [5] = experiment: as above
Method in brief: as §1

MFM-223 [6] = experiment: as above
Method in brief: as §1

HCC1143 [7] = experiment: as above
Method in brief: as §1

MDA-MB-231 [8] = experiment: as above
Method in brief: as §1

CAL-120 [9] = experiment: as above
Method in brief: as §1

CAL-85-1 [10] = experiment: as above
Method in brief: as §1

SK-BR-3 [11] = experiment: as above
Method in brief: as §1

BT-549 [12] = experiment: as above
Method in brief: as §1

HCC1937 [13] = experiment: as above
Method in brief: as §1

BT-474 [14] = experiment: as above
Method in brief: as §1

CAL-148 [15] = experiment: as above
Method in brief: as §1

MDA-MB-453 [16] = experiment: as above
Method in brief: as §1

HDQ-P1 [17] = experiment: as above
Method in brief: as §1

MDA-MB-436 [18] = experiment: as above
Method in brief: as §1

MCF-10A = experiment: as above
Method in brief: as §1

CAL-51 [19] = experiment: normalised viability (% of control), CellTiter-Blue; higher = more viable cells (100 = DMSO, 0 = benzethonium chloride kill control)
Method: (§2)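 DSRT, CellTiter-Blue viability, 72 h incubation. Signal is normalised to DMSO and benzethonium chloride controls. Value is the normalised response at dose 1.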

DU-4475 [20] = experiment: as above
Method: as §2

MDA-MB-468 [21] = experiment: as above
Method: as §2

Hs578T [22] = experiment: as above
Method: as §2

HCC1599 [23] = experiment: as above
Method: as §2

MFM-223 [24] = experiment: as above
Method: as §2

HCC1143 [25] = experiment: as above
Method: as §2

MDA-MB-231 [26] = experiment: as above
Method: as §2

CAL-120 [27] = experiment: as above
Method: as §2

CAL-85-1 [28] = experiment: as above
Method: as §2

SK-BR-3 [29] = experiment: as above
Method: as §2

BT-549 [30] = experiment: as above
Method: as §2

HCC1937 [31] = experiment: as above
Method: as §2

BT-474 [32] = experiment: as above
Method: as §2

CAL-148 [33] = experiment: as above
Method: as §2

MDA-MB-453 [34] = experiment: as above
Method: as §2

HDQ-P1 [35] = experiment: as above
Method: as §2

MDA-MB-436 [36] = experiment: as above
Method: as §2

O=P1(N(CCCl)CCCl)NCCCO1 (stereo not drawn) [Cyclophosphamide] (4 nM)
normalised response (CAL-51 [1]): 81.2% | normalised response (DU-4475 [2]): 103% | normalised response (MDA-MB-468 [3]): 102% | normalised response (Hs578T [4]): 101% | normalised response (HCC1599 [5]): 107% | normalised response (MFM-223 [6]): 105% | normalised response (HCC1143 [7]): 100% | normalised response (MDA-MB-231 [8]): 96.9% | normalised response (CAL-120 [9]): 93.4% | normalised response (CAL-85-1 [10]): 97.4% | normalised response (SK-BR-3 [11]): 110% | normalised response (BT-549 [12]): 98.5% | normalised response (HCC1937 [13]): 96.7% | normalised response (BT-474 [14]): 93.9% | normalised response (CAL-148 [15]): 99.6% | normalised response (MDA-MB-453 [16]): 115% | normalised response (HDQ-P1 [17]): 97.7% | normalised response (MDA-MB-436 [18]): 94% | normalised response (MCF-10A): 111% | normalised viability (CAL-51 [19]): 105% | normalised viability (DU-4475 [20]): 120% | normalised viability (MDA-MB-468 [21]): 98.9% | normalised viability (Hs578T [22]): 102% | normalised viability (HCC1599 [23]): 81.6% | normalised viability (MFM-223 [24]): 85.1% | normalised viability (HCC1143 [25]): 96.8% | normalised viability (MDA-MB-231 [26]): 96.9% | normalised viability (CAL-120 [27]): 87.3% | normalised viability (CAL-85-1 [28]): 88.2% | normalised viability (SK-BR-3 [29]): 101% | normalised viability (BT-549 [30]): 93.2% | normalised viability (HCC1937 [31]): 82.9% | normalised viability (BT-474 [32]): 97% | normalised viability (CAL-148 [33]): 119% | normalised viability (MDA-MB-453 [34]): 104% | normalised viability (HDQ-P1 [35]): 107% | normalised viability (MDA-MB-436 [36]): 110%

COc1cc2/c(=N/c3ccc(Br)cc3F)nc[nH]c2cc1OCC1CCN(C)CC1 [Vandetanib] (1 nM)
normalised response (CAL-51 [1]): 118% | normalised response (DU-4475 [2]): 94.8% | normalised response (MDA-MB-468 [3]): 88.1% | normalised response (Hs578T [4]): 93.9% | normalised response (HCC1599 [5]): 81.8% | normalised response (MFM-223 [6]): 87% | normalised response (HCC1143 [7]): 96.2% | normalised response (MDA-MB-231 [8]): 91.7% | normalised response (CAL-120 [9]): 88.7% | normalised response (CAL-85-1 [10]): 92.6% | normalised response (SK-BR-3 [11]): 68.2% | normalised response (BT-549 [12]): 92.7% | normalised response (HCC1937 [13]): 102% | normalised response (BT-474 [14]): 85.2% | normalised response (CAL-148 [15]): 83.8% | normalised response (MDA-MB-453 [16]): 86% | normalised response (HDQ-P1 [17]): 90.7% | normalised response (MDA-MB-436 [18]): 86.1% | normalised response (MCF-10A): 89.4% | normalised viability (CAL-51 [19]): 97% | normalised viability (DU-4475 [20]): 110% | normalised viability (MDA-MB-468 [21]): 94.9% | normalised viability (Hs578T [22]): 101% | normalised viability (HCC1599 [23]): 112% | normalised viability (MFM-223 [24]): 94.8% | normalised viability (HCC1143 [25]): 106% | normalised viability (MDA-MB-231 [26]): 88.2% | normalised viability (CAL-120 [27]): 124% | normalised viability (CAL-85-1 [28]): 110% | normalised viability (SK-BR-3 [29]): 84% | normalised viability (BT-549 [30]): 87.6% | normalised viability (HCC1937 [31]): 82.5% | normalised viability (BT-474 [32]): 107% | normalised viability (CAL-148 [33]): 98.4% | normalised viability (MDA-MB-453 [34]): 94.7% | normalised viability (HDQ-P1 [35]): 56.1% | normalised viability (MDA-MB-436 [36]): 81.1%

Oc1ccc2c(c1)CC[C@H](c1ccccc1)[C@@H]2c1ccc(OCCN2CCCC2)cc1 [Lasofoxifene] (0.1 nM)
normalised response (CAL-51 [1]): 86.3% | normalised response (DU-4475 [2]): 102% | normalised response (MDA-MB-468 [3]): 106% | normalised response (Hs578T [4]): 99.6% | normalised response (HCC1599 [5]): 104% | normalised response (MFM-223 [6]): 103% | normalised response (HCC1143 [7]): 104% | normalised response (MDA-MB-231 [8]): 106% | normalised response (CAL-120 [9]): 107% | normalised response (CAL-85-1 [10]): 95.4% | normalised response (SK-BR-3 [11]): 113% | normalised response (BT-549 [12]): 97.1% | normalised response (HCC1937 [13]): 100% | normalised response (BT-474 [14]): 106% | normalised response (CAL-148 [15]): 109% | normalised response (MDA-MB-453 [16]): 115% | normalised response (HDQ-P1 [17]): 104% | normalised response (MDA-MB-436 [18]): 99.2% | normalised response (MCF-10A): 109% | normalised viability (CAL-51 [19]): 104% | normalised viability (DU-4475 [20]): 93.1% | normalised viability (MDA-MB-468 [21]): 99.4% | normalised viability (Hs578T [22]): 96.6% | normalised viability (HCC1599 [23]): 92.2% | normalised viability (MFM-223 [24]): 89.1% | normalised viability (HCC1143 [25]): 76.4% | normalised viability (MDA-MB-231 [26]): 90.2% | normalised viability (CAL-120 [27]): 83.3% | normalised viability (CAL-85-1 [28]): 83.1% | normalised viability (SK-BR-3 [29]): 97.1% | normalised viability (BT-549 [30]): 114% | normalised viability (HCC1937 [31]): 80.3% | normalised viability (BT-474 [32]): 107% | normalised viability (CAL-148 [33]): 115% | normalised viability (MDA-MB-453 [34]): 95% | normalised viability (HDQ-P1 [35]): 87% | normalised viability (MDA-MB-436 [36]): 102%

CN(C)c1nc(N(C)C)nc(N(C)C)n1 [Altretamine] (1 nM)
normalised response (CAL-51 [1]): 103% | normalised response (DU-4475 [2]): 104% | normalised response (MDA-MB-468 [3]): 101% | normalised response (Hs578T [4]): 102% | normalised response (HCC1599 [5]): 90.2% | normalised response (MFM-223 [6]): 103% | normalised response (HCC1143 [7]): 99.6% | normalised response (MDA-MB-231 [8]): 104% | normalised response (CAL-120 [9]): 97% | normalised response (CAL-85-1 [10]): 96.4% | normalised response (SK-BR-3 [11]): 108% | normalised response (BT-549 [12]): 95% | normalised response (HCC1937 [13]): 93.1% | normalised response (BT-474 [14]): 106% | normalised response (CAL-148 [15]): 96.5% | normalised response (MDA-MB-453 [16]): 124% | normalised response (HDQ-P1 [17]): 101% | normalised response (MDA-MB-436 [18]): 97.9% | normalised response (MCF-10A): 102% | normalised viability (CAL-51 [19]): 105% | normalised viability (DU-4475 [20]): 111% | normalised viability (MDA-MB-468 [21]): 93.1% | normalised viability (Hs578T [22]): 97.3% | normalised viability (HCC1599 [23]): 86.3% | normalised viability (MFM-223 [24]): 95.1% | normalised viability (HCC1143 [25]): 102% | normalised viability (MDA-MB-231 [26]): 96% | normalised viability (CAL-120 [27]): 88.2% | normalised viability (CAL-85-1 [28]): 94.8% | normalised viability (SK-BR-3 [29]): 87.6% | normalised viability (BT-549 [30]): 93.1% | normalised viability (HCC1937 [31]): 105% | normalised viability (BT-474 [32]): 112% | normalised viability (CAL-148 [33]): 111% | normalised viability (MDA-MB-453 [34]): 99.1% | normalised viability (HDQ-P1 [35]): 116% | normalised viability (MDA-MB-436 [36]): 110%
